{
  "source": "patent US6197944A",
  "about": "“DNA molecules stabilized by modifications of the 3'-terminal phosphodiester linkage” (Integrated DNA Technologies, Inc., priority 1994, dated 2001)",
  "key": {"[1]": {"system": "mouse globin mRNA (MA-15: mouse α-globin mRNA; CODMB-25: mouse β-globin mRNA)", "test": "In vitro translation of globin mRNA in rabbit reticulocyte lysate (hybrid-arrested translation, role of RNaseH)", "type": "biochemical", "conditions": "for inhibition of translation of the targeted mRNA: in words; for % Inhibition Of Globin Synthesis, +poly rA/oligo dT: with poly rA/oligo dT 500 ug/ml (RNaseH inhibitor); for % Inhibition Of Globin Synthesis, +poly rA/oligo dT / % Inhibition Of Globin Synthesis, -poly rA/oligo dT: CODMB-25 4 uM, 1 hour at 30° C.; for % Inhibition Of Globin Synthesis, -poly rA/oligo dT: without poly rA/oligo dT", "method": "(§1) For the purpose of these experiments two oligonucleotides were synthesized: 5'-GAGCACCATGGTTTC, MA-15; and 5'-[…],(SEQ ID NO:2) CODMB-25. Both were prepared on a Beckman automated DNA synthesizer using the phophoramidite method. MA-15 is complementary to a sequence within mouse α-globin mRNA spanning the initiation codon. CODMB-25 hybridizes to a sequence within the coding region of mouse β-globin mRNA. Mouse globin mRNA was isolated from reticulocytes obtained from mice rendered anemic by treatment with phenylhydrazine as described by Goosens and Kan (Methods in Enzymology (Antonini, E., Rossi-Bernadi, L., and Chiancone, E., eds.) 76, 805-817, 1981). In vitro translation reactions were carried out in the rabbit reticulocyte lysate system. The reticylocyte lysates used were purchased from ProMega Biotec, and contain RNaseH. Translation reactions were programmed with 1 ug of total mouse reticulocyte RNA. The reactions were allowed to proceed for 1 hour at 30° C. Each sample contained 45 uCi of [^35 S]methionine (Amersham) in a total volume of 25 ul. Protein synthesis was measured by incorporation of [^35 S]methionine into material precipitatable in 10% trichloracetic acid. In control reactions in the absence of oligonucleotide, synthesis of β globin accounts for 60% of the incorporated counts; α globin synthesis accounts for 40% of the radioactivity incorporated into protein. Reactions were carried out in both the presence and absence of poly rA/oligo dT (500 ug/ml)."}, "[2]": {"system": "β-globin mRNA", "test": "In vitro translation in rabbit reticulocyte lysate, β-globin synthesis", "type": "biochemical, mouse", "conditions": "in words; MA-15 complementary to 12 of 15 residues of β-globin mRNA", "method": "as §1, with “Reactions were carried out in both the presence and absence of poly rA/oligo dT (500 ug/ml).” left out"}, "[3]": {"type": "in vitro ADME, human", "conditions": "37° C., 15 minutes to 2 hours, heparinized blood", "method": "The oligonucleotide MA-15 described in Example 1 was radioactively labeled with ^32 P at the 5'-end of the molecule using γ^32 P-adenosine triphosphate (γ ^32 P-ATP, Amersham) and T4 polynucleotide kinase (Bethesda Research Laboratories):\nwhere the asterisk represents the radiolabel. Separately, a radiolabeled derivative was prepared in which ^32 P was introduced at the 3'most internucleotide link using α^32 P-deoxycytidine triphosphate (dCTP) and DNA polymerase I (Bethesda Research Laboratories):\nThe reaction catalyzed by DNA polymerase I is between 5'-GAGCACCATGGTTT and dCTP and requires the complementary DNA strand as a template. A 50 fold excess of unlabeled MA-15 was added after the reaction to insure that the labeled derivative is single stranded. These procedures are standard methods for radiolabeling DNA fragments, see for example, Maniatis, T., Fritsch, E. F., and Sambrook, J., Molecular Cloning: A Laboratory Manual, Cold Spring Harbor Laboratory, New York, pp. 114-115 and 122-126, 1982, which is incorporated herein by reference. […]\nThe modified oligonucleotide was labeled with ^32 P at the 5'-terminal OH group using γ^32 P-ATP and T4 polynucleotide kinase as described in Example 3. […] Aliquots were removed at various times and analyzed by polyacrylamide gel electrophoresis. […]"}, "[4]": {"test": "Degradation of oligonucleotide in K562 cell extracts", "type": "in vitro ADME, human", "method": "The purpose of these studies was to determine the pathways by which oligonucleotides are degraded by nucleases present within human cells. Radiolabeled derivatives of MA-15 were prepared as in Example 3. Degradation of the oligonucleotide was studied in extracts prepared from the human erythroleukemia cell line K562. The K562 cell line was first isolated by Lozzio, C. B., and Lozzio, B. B., Blood (1975) 45, 321-334, and has been studied extensively as a model for red cell differentiation. The cells were suspended in 10 mM tris buffer pH 7.4 with 5 mM MgCl2, 1 mM CaCl2, 100 mM NaCl, and 0.1% Triton® X-100 (polyethylene glycol 4-isooctylphenyl ether, and homogenized with a cold motor driven teflon pestle homogenizer for 30 seconds. Cell membranes and organelles were further disrupted by sonication by five 15 second bursts using a Biosonic sonifier set on full power. Remaining cell debris was removed from the extracts by centrifugation for 5 minutes at 12,000×g.\nThe radiolabeled oligonucleotide was incubated in K562 cell extracts under the same conditions as decribed in Example 3 and the degradation products analyzed by polyacrylamide gel electrophoresis. […] The half-life for cleavage of the 3'-terminal internucleotide link was 2 minutes. […] The half-life for cleavage of the 5'-terminal nucleotide unit from the chain by this mechanism was 20 minutes.\nThe derivative of MA-15 described in Example 5 in which the 3'-terminal internucleotide link was modified as a 2,2,2-trichloro-1,1-dimethylethyl phosphotriester was also used in this study. Extracts from K562 cells were prepared as in Example 4. The modified oligonucleotide was incubated in the cell extracts at 37° C. Aliquots were removed at various times, and the products of degradation were analyzed by polyacrylamide gel electrophoresis."}, "[5]": {"system": "mouse α-globin mRNA", "test": "Cleavage of globin mRNA by E. coli RNaseH after hybridization with oligonucleotide (Northern blot)", "type": "biochemical", "conditions": "1.1 nanomoles oligonucleotide in 22 microliters, 2 units E. coli RNaseH, 30 minutes at 37° C.", "method": "Mouse globin mRNA was isolated from mice rendered anemic by treatment with phenylhydrazine as described in Example 1. Three oligonucleotides were compared in this study; MA-15, the derivative of MA-15 utilized in Examples 5 and 6 in which the 3'-terminal internucleotide link is modified as a trichlorodimethylethyl phosphotriester (MA-15-TCDM), and a derivative further modified at the 5'-terminal OH group with naphthylisocyanate (NPH-MA-15-TCDM). Mouse globin mRNA (2 micrograms) was added to 1.1 nanomoles of the oligonucleotide in a final volume of 22 microliters containing 10 mM tris-HCl buffer at pH 7.5, 5 mM MgCl2, 25 mM NaCl, and 1 mM dithiothreitol. The reactions were initiated by the addition of 2 units of E. coli RNaseH, and were allowed to proceed for 30 minutes at 37° C. The reactions were stopped by extraction of the samples with a 1:1 mixture of phenol and chloroform. The mRNA species remaining after digestion with RNaseH were isolated by precipitation with ethanol and analyzed on Northern blots.\nThe RNA samples were reacted with 1 M glyoxal in a 1:1 (volume/volume) mixture of 10 mM sodium phosphate buffer at pH 6.5 and dimethylsulfoxide for 1 hour at 50° C., and then electrophoresed on a 1.5% agarose gel. The RNAs were transferred from the gel to a Gene Screen Plus filter (DuPont-NEN) by capillary blotting according to the method described by the manufacturer. […]"}, "[6]": {"system": "c-myc mRNA", "test": "Inhibition of expression of c-myc in MOPC 315 cells (Northern blot)", "type": "cell-based, murine", "conditions": "either 1 or 5 micromolar, 4 hours at 37° C.", "method": "MOPC 315 cells were maintained in RPMI 1640 culture media containing 10% fetal calf serum at 37° C. with 7% CO2. Log phase MOPC 315 cells were harvested by centrifugation (250×g for 19 minutes at 23° C.) and resuspended at a density of 5×10^6 /ml in HB101 serum-free medium (DuPont). One ml aliquots of this cell suspension were incubated in the presence of oligonucleotide for 4 hours at 37° C. and 7% CO2. Additional one ml aliquots were incubated concommitantly without oligonucleotide. Cells from each group were then collected by centrifugation. Total cellular RNA was prepared as described by Chirgwin et al., Biochemistry 18, 5294-5299 (1979), and analyzed by Northern blots as described in Example 7. The filters were probed with an oligonucleotide complementary to c-myc mRNA labeled with ^32 P using polynucleotide kinase and γ^32 P-ATP as in previous examples."}},
  "data": [
    {"substance": "5'-GAGCACCATGGTTTC [MA-15]", "values": [
      {"measurement": "inhibition of translation of the targeted mRNA", "setting": "[1]", "result": "very effectively inhibited translation of the targeted mRNA"},
      {"measurement": "% Inhibition Of Globin Synthesis, +poly rA/oligo dT", "setting": "[1]", "result": 3, "unit": "%"},
      {"measurement": "% Inhibition Of Globin Synthesis, -poly rA/oligo dT", "setting": "[1]", "result": 51, "unit": "%"},
      {"measurement": "inhibition of β-globin synthesis", "setting": "[2]", "result": "inhibits β-globin synthesis to some extent"},
      {"measurement": "pathway of degradation in human blood", "setting": "[3]", "result": "sequential exonucleolytic cleavage of the strand from the 3'-toward the 5'-end of the chain"},
      {"measurement": "degradation by 5'- to 3'-exonucleolytic activity in K562 cell extracts", "setting": "[4]; K562 cell extracts", "result": "A slower 5'- to 3'-exonucleolytic activity was also observed"},
      {"measurement": "primary pathway of degradation in K562 cell extracts", "setting": "[4]; K562 cell extracts", "result": "3' to 5' exonucleolytic activity"},
      {"measurement": "rate of degradation compared with that in blood", "setting": "[4]; K562 cell extracts vs blood", "result": "much faster than that in blood"},
      {"measurement": "half-life for cleavage of the 3'-terminal internucleotide link", "setting": "[4]; K562 cell extracts, 3' to 5' exonucleolytic activity, 37° C.", "result": 2, "unit": "min"},
      {"measurement": "half-life for cleavage of the 5'-terminal nucleotide unit from the chain", "setting": "[4]; K562 cell extracts, 5'- to 3'-exonucleolytic activity, 37° C.", "result": 20, "unit": "min"},
      {"measurement": "decrease in intensity of the α-globin mRNA band (RNaseH cleavage)", "setting": "[5]", "result": "marked decrease in the intensity of the band for α-globin mRNA"}
    ]},
    {"substance": "5'-T CCCTTCATCCCGAAGTT C (antisense TCCCTTCATCCCGAAGTTC; TCDM group attached, position not given here) [anti-albumin oligonucleotide, oligonucleotide complementary to human albumin mRNA; ( ) again represents the TCDM group]", "values": [
      {"measurement": "effect on c-myc mRNA levels", "setting": "[6]", "result": "no effect"}
    ]},
    {"substance": "5'-TGTCCAAGTGATTCAGGCCATCGTT [CODMB-25]", "values": [
      {"measurement": "inhibition of translation of the targeted mRNA", "setting": "[1]", "result": "very effectively inhibited translation of the targeted mRNA"},
      {"measurement": "% Inhibition Of Globin Synthesis, +poly rA/oligo dT", "setting": "[1]", "result": 5, "unit": "%"},
      {"measurement": "% Inhibition Of Globin Synthesis, -poly rA/oligo dT", "setting": "[1]", "result": 61, "unit": "%"}
    ]}
  ]
}
